Assay [1] relates to rat brain CaM kinase. As to the kind of experiment: Autocamtide-2 phosphorylation by purified rat brain CaM kinase. It counts as biochemical.
The test system of assay [2] is 56-kD α-like egg polypeptide (sea urchin egg CaM kinase). As to the kind of experiment: Endogenous phosphorylation in sea urchin egg calmodulin-depleted cytosol. It counts as biochemical, L. pictus (sea urchin). To be noted: 50 μM peptide in Fig. 5 A.
The test system of assay [3] is rat brain CaM kinase. Briefly: Autophosphorylation of rat brain CaM kinase. The note with it: 50 μM peptide in Fig. 5 B. It counts as biochemical.
Assay [4] has as its system L. pictus eggs (nuclear envelope breakdown). As to the kind of experiment: Nuclear envelope breakdown. The format is cell-based, L. pictus (sea urchin). The note with it: for Delay of NEB (fraction of eggs) / Duration of delay of NEB / Normal NEB (fraction of eggs): Table I, injected before fertilization.
Assay [5] relates to sea urchin egg CaM kinase. As to the kind of experiment: Autocamtide-2 phosphorylation by sea urchin egg extracts. The format is biochemical, L. pictus (sea urchin).
[6] abbreviates: higher concentrations, over 4% of the cell volume.

As to “CaMK(284-302): control peptide, lacks a critical region of the autoinhibitory domain and therefore does not inhibit CaM kinase (QETVDCLKKFNARRKLKGA; UniProt P11275 284-302, looked up, fragment)”, in the assay on rat brain CaM kinase [1] (Discussion summary), the “inhibition of brain kinase (in words)” value was “very weak inhibitor”. In the assay with rat brain CaM kinase [1] (Fig. 4), the “inhibition of rat brain kinase (in words)” value is listed as “does not inhibit rat brain kinase”. For the same substance, in assay [2], the “endogenous phosphorylation of the α-like subunit (effect in words)” value was “only marginally affected”. Further, the “autophosphorylation of rat brain kinase (effect in words)” value with rat brain CaM kinase [3] is recorded as “only slightly inhibited”. The “effect on NEB (in words)” value in assay [4] (Discussion summary) is recorded as “minimal effects on NEB”. In addition, in assay [4] (1.7-3.5% vol, 60-190 μM), the “Delay of NEB (fraction of eggs)” value is 1/9, the “Duration of delay of NEB” value is recorded as 9 min and the “Normal NEB (fraction of eggs)” value is 8/9. Besides, in assay [4] (4.1-4.8% vol, 220-260 μM), the “Delay of NEB (fraction of eggs)” value was 3/4, the “Duration of delay of NEB” value lay in the range of 11 to 27 min and the “Normal NEB (fraction of eggs)” value is listed as 1/4. For the same substance, the “NEB (in words)” value in assay [4] (control peptide, text on Fig. 6) is “normal NEB”. Also, the “delay of NEB in one case” value in assay [4] (estimated intracellular concentration 80 μM) was 9 min. Also, the “delay of NEB” value in assay [4] (higher concentrations, injection volumes over 4% of the cell volume) lay within 11 to 27 min. In assay [4] (setting [6]), the “cases in which NEB proceeded normally” value is “one case” and the “cases with delayed NEB” value is reported as “three of four”. The “inhibition of egg kinase (in words)” value in assay [5] (Discussion summary) is reported as “very weak inhibitor”. For the same substance, in assay [5] (calmodulin-depleted cytosol fractions, Fig. 4), the “phosphorylation of autocamtide-2 (effect in words)” value is listed as “not affected”. For the same substance, the “inhibitory effects on phosphorylation of autocamtide-2 (in words)” value in assay [5] (sea urchin egg extracts, concentrations up to 100 μM, Fig. 4) is on record as “no apparent inhibitory effects”.
